From patent publication US20230066946A1, “1,5-DIPHENYLPYRAZOLYL-3-OXYALKYL ACIDS AND 1-PHENYL-5-THIENYLPYRAZOLYL-3-OXYALKYL ACIDS AND THE USE THEREOF FOR CONTROL OF UNWANTED PLANT GROWTH” (Bayer Aktiengesellschaft, priority 2019, published 2023)

Legend:
AMARE [1] = assay: Post-emergence herbicidal action against AMARE; type: in vivo, Amaranthus retroflexus; conditions: visual rating about 3 weeks after treatment
Method: (§1) [table] Seeds of mono- and dicotyledonous weed plants are placed in plastic pots in sandy loam soil (twin sowing with one species each of mono- or dicotyledonous weed plants per pot), covered with soil and cultivated in a greenhouse under controlled growth conditions. 2 to 3 weeks after sowing, the test plants are treated at the one-leaf stage. The compounds of the invention, formulated in the form of wettable powders (WP) or as emulsion concentrates (EC), are applied to the green parts of the plants as aqueous suspension or emulsion with addition of 0.5% additive at a water application rate equivalent to 600 litres per hectare. After the test plants have been kept in the greenhouse under optimum growth conditions for about 3 weeks, the activity of the preparations is rated visually in comparison to untreated controls. For example, 100% activity=the plants have died, 0% activity=like control plants. Tables 5.1-5.16 below show the effects of selected compounds of the general formula (I) according to Tables 1 to 3 on various harmful plants at an application rate corresponding to 1280 or 320 g/ha, which have been obtained by the aforementioned experimental method.

STEME [2] = assay: Pre-emergence herbicidal action against STEME; type: in vivo, Stellaria media; conditions: 1280 g/ha, scored visually after about 3 weeks vs untreated controls
From the text: (§2) Seeds of mono- and dicotyledonous weed plants are placed in plastic pots in sandy loam soil (doubly sown with one species each of mono- or dicotyledonous weed plants per pot) and covered with soil. The compounds of the invention, formulated in the form of wettable powders (WP) or as emulsion concentrates (EC), are then applied onto the surface of the covering soil as aqueous suspension or emulsion with addition of 0.5% additive at a water application rate equivalent to 600 litres per hectare. After the treatment, the pots are placed in a greenhouse and kept under good growth conditions for the trial plants. After about 3 weeks, the effect of the preparations is scored visually in comparison with untreated controls as percentages. For example, 100% activity=the plants have died, 0% activity=like control plants. [table] Tables 4.1-4.15 below show the effects of selected compounds of the general formula (I) according to Tables 1 to 3 on various harmful plants at an application rate corresponding to 1280 or 320 g/ha, which have been obtained by the aforementioned experimental method.

STEME [3] = assay: Post-emergence herbicidal action against STEME; type: in vivo, Stellaria media; conditions: 1280 g/ha, visual rating about 3 weeks after treatment
Method: as §1

SETVI [4] = assay: Pre-emergence herbicidal action against SETVI; type: in vivo, Setaria viridis; conditions: 1280 g/ha, scored visually after about 3 weeks vs untreated controls
From the text: as §2

AMARE [5] = assay: Pre-emergence herbicidal action against AMARE; type: in vivo, Amaranthus retroflexus; conditions: scored visually after about 3 weeks vs untreated controls; for Pre-emergence action against AMARE in %: 1280 g/ha
From the text: as §2

MATIN = assay: Post-emergence herbicidal action against MATIN; type: in vivo, Matricaria inodora; conditions: 1280 g/ha, visual rating about 3 weeks after treatment
Method: as §1

ECHCG [6] = assay: Post-emergence herbicidal action against ECHCG; type: in vivo, Echinochloa crus-galli; conditions: 1280 g/ha, post-emergence at one-leaf stage, rated visually after about 3 weeks vs untreated controls
Method: as §1

ECHCG [7] = assay: Pre-emergence herbicidal action against ECHCG; type: in vivo, Echinochloa crus-galli; conditions: scored visually after about 3 weeks vs untreated controls, 100% = plants have died, 0% = like control plants
From the text: as §2

SETVI [8] = assay: Post-emergence herbicidal action against SETVI; type: in vivo, Setaria viridis; conditions: 1280 g/ha, post-emergence at one-leaf stage, rated visually after about 3 weeks vs untreated controls
Method: as §1

PHBPU = assay: Post-emergence herbicidal action against PHBPU; type: in vivo, Pharbitis purpurea; conditions: 320 g/ha, visual rating about 3 weeks after treatment
Method: as §1

VERPE = assay: Pre-emergence herbicidal action against VERPE; type: in vivo, Veronica persica; conditions: 320 g/ha, scored visually after about 3 weeks vs untreated controls
From the text: as §2

POLCO = assay: Post-emergence herbicidal action against POLCO; type: in vivo, Polygonum convolvulus; conditions: 320 g/ha, visual rating about 3 weeks after treatment
Method: as §1

Structure (SMILES) | Post-emergence action against AMARE in % (AMARE [1]; 1280 g/ha) [%] | Pre-emergence action against STEME in % (STEME [2]) [%] | Post-emergence action against STEME in % (STEME [3]) [%] | Pre-emergence action against SETVI in % (SETVI [4]) [%] | Pre-emergence action against AMARE in % (AMARE [5]) [%] | Post-emergence action against MATIN in % (MATIN) [%] | Post-emergence action against ECHCG in % (ECHCG [6]) [%] | Pre-emergence action at 1280 g/ha against ECHCG in % (ECHCG [7]) [%] | Post-emergence action against SETVI in % (SETVI [8]) [%] | Post-emergence action against AMARE in % (AMARE [1]; 320 g/ha) [%] | Post-emergence action against PHBPU in % (PHBPU) [%] | Pre-emergence action against VERPE in % (VERPE) [%] | Pre-emergence action at 320 g/ha against AMARE in % (AMARE [5]; 320 g/ha, 100% = plants have died, 0% = like control plants) [%] | Post-emergence action against POLCO in % (POLCO) [%]
COC(=O)COc1nn(-c2ccc(F)cc2)c(-c2cccc(F)c2)c1Br [I-107] | 100 | 100 | 90 | 90 | 90 | 100 | 90 | 100 | – | – | – | – | – | –
O=C(O)COc1nn(-c2ccc(F)cc2)c(-c2cccc(F)c2)c1Cl [I-120] | – | 100 | – | 100 | 100 | 90 | 90 | 90 | – | – | – | – | – | –
COC(=O)[C@H](C)Oc1nn(-c2cccc(F)c2)c(-c2cccc(F)c2)c1C#N [I-126] | 100 | 100 | 100 | 100 | 100 | – | 90 | – | 90 | – | – | – | – | –
O=C(O)COc1nn(-c2ccccc2F)c(-c2ccc(F)c(F)c2)c1Br [I-136] | 90 | 100 | 100 | 100 | 100 | 90 | 100 | 100 | – | – | – | – | – | –
CCOC(=O)COc1nn(-c2ccccc2F)c(-c2ccc(F)c(F)c2)c1[N+](=O)[O-] [I-143] | 100 | 90 | 100 | 100 | 100 | 100 | 100 | – | – | – | – | – | – | –
COC(=O)C(C)Oc1nn(-c2ccccc2)c(-c2cccc(F)c2)c1Cl (centres unmarked) [I-164] | 100 | 100 | 100 | 100 | 100 | 100 | 90 | 100 | 100 | – | – | – | – | –
CC(Oc1nn(-c2c(F)cccc2F)c(-c2ccc(F)c(F)c2)c1Br)C(=O)O (centres unmarked) [I-167] | – | 100 | 100 | 100 | 100 | – | 90 | 100 | – | – | – | – | – | –
COC(=O)C(C)Oc1nn(-c2c(F)cccc2F)c(-c2ccc(F)c(F)c2)c1Br (centres unmarked) [I-169] | 100 | 100 | 100 | 100 | 100 | 90 | 90 | 100 | 90 | – | – | – | – | –
C=CCNC(=O)COc1nn(-c2ccccc2)c(-c2ccc(F)cc2)c1Br [III-004] | 100 | 100 | – | 100 | 100 | – | – | 100 | – | 80 | 80 | 100 | 80 | 80
CCOC(=O)CCNC(=O)COc1nn(-c2ccc(F)cc2)c(-c2cccc(F)c2)c1Br [III-019] | 100 | 100 | – | 100 | 90 | 90 | 90 | – | 90 | – | – | – | – | –
